Test results from US20260217767A1, “NOVEL A4B7 THIOETHER PEPTIDE DIMER ANTAGONISTS” (Protagonist Therapeutics, Inc., priority 2014, published 2026).
Read-outs that look alike come from different tables or passages of the source. Where a SMILES comes first, the peptide text is derived from it.

Assays:
[1] = Simulated Intestinal Fluid (SIF) Stability Assay; type: in vitro ADME; details: simulated gi fluid, porcine pancreatin, 37° C.; monomers, Table 6
Protocol: Simulated Intestinal Fluid (SIF) Stability Assay
Studies were carried out in simulated intestinal fluid (SIF) to evaluate intestinal stability of the peptide molecules of the instant invention. To prepare the SIF reagent, blank FASSIF was prepared by dissolving 0.348 g NaOH, 3.954 g sodium phosphate monobasic monohydrate and 6.186 g NaCl in a final volume of 1 liter water (final pH=6.5). To this solution, 24 g porcine pancreatin (Sigma catalog P7545) was added and stirred for 30 minutes (final pancreatin concentration is 2.4%). The solution was filtered through a cheese cloth and a No. 1 Whatman filter, and 10 ml aliquots were stored at −70° C. To run the reaction, a 10 ml aliquot was thawed at 37° C., and 125 μl aliquots were removed and mixed with an equal volume of blank FASSIF. The peptide stock solution (10 mM in 100% DMSO) was diluted 75-fold in blank FASSIF. A 50 μl aliquot of the diluted peptide was combined with 125 μl pancreatin (2.4%) and 125 μl blank FASSIF to yield final concentrations of 1% pancreatin and 22 μM peptide. The reactions were incubated at 37° C., and at various time points 50 μl aliquots were removed and added to 200 μl of quench solution containing 50% acetonitrile, 50% methanol, 5% formic acid, and 1 μg/ml internal standard. The quenched samples were centrifuged at 10,000 rpm for 10 minutes, and the supernatants were analyzed by LCMS/MS. The percent remaining at each time point was calculated based on the peak area response ratio of test to compound to internal standard. Half-lives were calculated by fitting to a first-order exponential decay equation using GraphPad. A small sampling of the results of these studies is provided and discussed herein and in the accompanying figures.

RPMI 8866 cells = target: T1, RPMI 8866 cells (Homo sapiens, UniProt P13612+P26010); test: α4β7-MAdCAM Cell Adhesion Assay; type: cell-based; details: read-out: Cell-Adhesion A4B7
T1 sequence (P13612 34-1032): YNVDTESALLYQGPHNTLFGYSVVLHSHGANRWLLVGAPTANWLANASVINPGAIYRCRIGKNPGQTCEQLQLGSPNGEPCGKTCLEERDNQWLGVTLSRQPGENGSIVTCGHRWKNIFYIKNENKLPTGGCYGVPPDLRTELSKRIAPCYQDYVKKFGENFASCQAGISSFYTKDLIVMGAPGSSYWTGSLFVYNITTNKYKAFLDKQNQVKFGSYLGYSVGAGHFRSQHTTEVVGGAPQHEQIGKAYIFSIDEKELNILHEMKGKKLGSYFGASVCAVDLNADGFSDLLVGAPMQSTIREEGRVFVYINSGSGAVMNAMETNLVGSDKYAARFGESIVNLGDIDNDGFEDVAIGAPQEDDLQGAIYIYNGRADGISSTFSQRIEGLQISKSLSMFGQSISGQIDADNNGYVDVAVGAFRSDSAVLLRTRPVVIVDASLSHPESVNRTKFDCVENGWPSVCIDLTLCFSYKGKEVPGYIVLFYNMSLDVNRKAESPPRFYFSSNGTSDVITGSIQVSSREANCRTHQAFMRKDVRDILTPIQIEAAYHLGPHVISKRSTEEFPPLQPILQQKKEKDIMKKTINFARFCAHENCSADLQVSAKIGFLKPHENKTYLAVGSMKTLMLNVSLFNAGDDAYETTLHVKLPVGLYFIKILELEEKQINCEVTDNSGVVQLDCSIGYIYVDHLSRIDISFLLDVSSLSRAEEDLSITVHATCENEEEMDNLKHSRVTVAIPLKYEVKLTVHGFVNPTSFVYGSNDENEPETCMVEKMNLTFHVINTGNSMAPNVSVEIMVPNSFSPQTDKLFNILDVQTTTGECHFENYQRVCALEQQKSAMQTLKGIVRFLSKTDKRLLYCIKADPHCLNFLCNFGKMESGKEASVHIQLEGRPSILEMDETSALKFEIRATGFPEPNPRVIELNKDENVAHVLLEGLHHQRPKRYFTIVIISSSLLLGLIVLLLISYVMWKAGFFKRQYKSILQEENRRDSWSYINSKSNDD
T1 sequence (P26010 20-798): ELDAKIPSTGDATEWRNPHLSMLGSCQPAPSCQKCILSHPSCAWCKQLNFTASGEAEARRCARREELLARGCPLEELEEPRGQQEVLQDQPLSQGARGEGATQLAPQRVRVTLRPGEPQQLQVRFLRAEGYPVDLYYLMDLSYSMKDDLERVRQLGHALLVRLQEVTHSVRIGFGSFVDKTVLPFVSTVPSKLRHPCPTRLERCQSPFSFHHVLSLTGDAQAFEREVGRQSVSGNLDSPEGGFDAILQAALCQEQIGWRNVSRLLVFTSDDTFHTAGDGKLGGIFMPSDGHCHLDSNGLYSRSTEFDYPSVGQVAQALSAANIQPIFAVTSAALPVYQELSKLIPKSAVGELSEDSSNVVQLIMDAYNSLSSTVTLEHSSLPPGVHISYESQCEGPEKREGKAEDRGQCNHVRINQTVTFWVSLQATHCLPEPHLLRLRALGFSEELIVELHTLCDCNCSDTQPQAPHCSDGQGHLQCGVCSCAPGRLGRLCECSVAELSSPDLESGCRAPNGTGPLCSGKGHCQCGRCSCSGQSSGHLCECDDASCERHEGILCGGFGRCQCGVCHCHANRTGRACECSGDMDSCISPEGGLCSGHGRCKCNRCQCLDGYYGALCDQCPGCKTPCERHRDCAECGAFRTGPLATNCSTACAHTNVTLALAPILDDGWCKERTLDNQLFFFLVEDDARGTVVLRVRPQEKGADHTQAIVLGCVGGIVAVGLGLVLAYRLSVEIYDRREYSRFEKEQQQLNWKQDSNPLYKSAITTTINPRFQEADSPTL
Protocol: α4β7-MAdCAM Cell Adhesion Assay
RPMI 8866 cells (Sigma #95041316) were cultured in RPMI 1640 HEPES medium (Invitrogen #22400-089) supplemented with 10% serum (Fetal Bovine Serum, Invitrogen #16140-071), 1 mM sodium pyruvate (Invitrogen #11360-070), 2 mM L-glutamine (Invitrogen #25030-081) and Penicillin-Streptomycin (Invitrogen #15140-122) at 100 units of penicillin and 100 μg of streptomycin per ml. The cells were washed two times in DMEM medium (ATCC #30-2002) supplemented with 0.1% BSA, 10 mM HEPES pH 7 and 1 mM MnCl2. The cells were re-suspended in supplemented DMEM medium at a density of 4×10^6 cells/ml.
A Nunc MaxiSorp plate was coated with rh MAdCAM-1/Fc Chimera (R&D #6065-MC) at 200 ng per well in 50 ul per well in 1×PBS and incubated at 4° C. overnight. The solution was then removed by shaking, blocked with 250 ul per well PBS containing 1% BSA, and incubated at 37° C. for 1 hr. The solution was removed by shaking. Peptides were diluted by serial dilution in a final volume of 50 ul per well (2× concentration). To each well, 50 ul of cells (200,000 cells) were added and the plate was incubated at 37° C., 5% CO2 for 30-45 min to allow cell adhesion. The wells were washed manually three times (100 ul per wash) with supplemented DMEM. After the final wash, 100 μl/well of supplemented DMEM and 10 ul/well of MTT reagent (ATTC cat #30-1010K) were added. The plate was incubated at 37° C., 5% CO2 for 2-3 hrs until a purple precipitate is visible. 100 ul of Detergent Reagent (ATTC cat #30-1010K) was added to each well. The plate was covered from the light, wrapped in Parafilm to prevent evaporation, and left overnight at room temperature in the dark. The plate was shaken for 5 min and the absorbance at 570 nm is measured. To calculate the dose response, the absorbance value of control wells not containing cells was subtracted from each test well.

[2] = thioether peptide dimers, Table 7
[3] = thioether monomer peptides, Table 6

Molecule	IC50 (RPMI 8866 cells; [2]) [nM]	other results
CCCC[C@@H]1NC(=O)[C@H]([C@@H](C)O)NC(=O)[C@H](CC(=O)O)NC(=O)[C@H](CO)NC(=O)[C@H](CCCNC(=N)N)N(C)C(=O)c2ccccc2CSC(C)(C)[C@@H](C(=O)N[C@@H](Cc2c[nH]c3ccccc23)C(=O)N[C@@H](CCC(=O)O)C(=O)N[C@H](CCCCN)C(N)=O)NC1=O [compound 64] (HELM PEPTIDE1{[meR].S.D.T.[Nle].[Pen].W.E.[dK].[am]}|CHEM1{[O=C(c1ccccc1C[*:2])[*:1]]}$PEPTIDE1,CHEM1,1:R1-1:R1|PEPTIDE1,CHEM1,6:R3-1:R2$$$V2.0)		half-life [1]: 2.98 h
CC(C)C[C@@H]1NC(=O)[C@H]([C@@H](C)O)NC(=O)[C@H](CCC(=O)O)NC(=O)[C@H](CO)NC(=O)[C@H](CCCNC(=N)N)N(C)C(=O)c2ccccc2CSC(C)(C)[C@@H](C(=O)N[C@@H](Cc2ccccc2)C(=O)N[C@H](CCC(=O)O)C(=O)N[C@H](CCCCN)C(N)=O)NC1=O [compound 189] (HELM PEPTIDE1{[meR].S.E.T.L.[Pen].F.[dE].[dK].[am]}|CHEM1{[O=C(c1ccccc1C[*:2])[*:1]]}$PEPTIDE1,CHEM1,1:R1-1:R1|PEPTIDE1,CHEM1,6:R3-1:R2$$$V2.0)	> 1000	
COC(=O)CC[C@H](NC(=O)[C@H](Cc1c[nH]c2ccccc12)NC(=O)[C@H]1NC(=O)[C@H](CC(C)C)NC(=O)[C@H]([C@@H](C)O)NC(=O)[C@H](CC(=O)O)NC(=O)[C@H](CO)NC(=O)[C@H](CCCNC(=N)N)N(C)C(=O)c2ccccc2CSC1(C)C)C(=O)N[C@H](CCCCN)C(N)=O [compound 210] (HELM PEPTIDE1{[meR].S.D.T.L.[Pen].W.E.[dK].[am]}|CHEM1{[CO[*:1]]}|CHEM2{[O=C(c1ccccc1C[*:2])[*:1]]}$PEPTIDE1,CHEM1,8:R3-1:R1|PEPTIDE1,CHEM2,1:R1-1:R1|PEPTIDE1,CHEM2,6:R3-1:R2$$$V2.0)	100 to 1000	
CC(C)C[C@@H]1NC(=O)[C@H]([C@@H](C)O)NC(=O)[C@H](CC(=O)O)NC(=O)[C@H](CO)NC(=O)[C@H](CCCNC(=N)N)N(C)C(=O)c2ccccc2CSC[C@@H](C(=O)N[C@H](Cc2ccccc2)C(=O)N[C@@H](CCC(=O)O)C(=O)N[C@H](CCCCN)C(N)=O)NC1=O [compound 186] (HELM PEPTIDE1{[meR].S.D.T.L.C.[dF].E.[dK].[am]}|CHEM1{[O=C(c1ccccc1C[*:2])[*:1]]}$PEPTIDE1,CHEM1,1:R1-1:R1|PEPTIDE1,CHEM1,6:R3-1:R2$$$V2.0)	25 to 100	
CC(C)C[C@@H]1NC(=O)[C@H]([C@@H](C)O)NC(=O)[C@H](CC(=O)O)NC(=O)[C@H](CO)NC(=O)[C@H](CCCNC(=N)N)N(C)C(=O)c2ccc(cc2)CSC(C)(C)[C@@H](C(=O)N[C@@H](Cc2c[nH]c3ccccc23)C(=O)N[C@H](CCC(=O)O)C(=O)N[C@H](CCCCN)C(N)=O)NC1=O [compound 112] (HELM PEPTIDE1{[meR].S.D.T.L.[Pen].W.[dE].[dK].[am]}|CHEM1{[O=C(c1ccc(C[*:2])cc1)[*:1]]}$PEPTIDE1,CHEM1,1:R1-1:R1|PEPTIDE1,CHEM1,6:R3-1:R2$$$V2.0)		IC50 (RPMI 8866 cells; [3]): > 1000 nM
CC(C)C[C@@H]1NC(=O)[C@H]([C@@H](C)O)NC(=O)[C@H](CC(=O)O)NC(=O)[C@H](CO)NC(=O)[C@H](CCCNC(=N)N)N(C)C(=O)c2ccccc2CSC[C@@H](C(=O)N[C@@H](Cc2c[nH]c3ccccc23)C(=O)N[C@@H](CCC(=O)O)C(=O)N[C@H](CCCCN)C(N)=O)NC1=O [compound 145] (HELM PEPTIDE1{[meR].S.D.T.L.C.W.E.[dK].[am]}|CHEM1{[O=C(c1ccccc1C[*:2])[*:1]]}$PEPTIDE1,CHEM1,1:R1-1:R1|PEPTIDE1,CHEM1,6:R3-1:R2$$$V2.0)	25 to 100	
CC(C)C[C@@H]1NC(=O)[C@H]([C@@H](C)O)NC(=O)[C@H](CC(=O)O)NC(=O)[C@H](CO)NC(=O)[C@H](CCCNC(=N)N)N(C)C(=O)c2ccccc2CSC[C@@H](C(=O)N2Cc3ccccc3C[C@H]2C(=O)N[C@H](CCCCN)C(=O)O)NC1=O [compound 118] (HELM PEPTIDE1{[meR].S.D.T.L.C.[Tic].[dK]}|CHEM1{[O=C(c1ccccc1C[*:2])[*:1]]}$PEPTIDE1,CHEM1,1:R1-1:R1|PEPTIDE1,CHEM1,6:R3-1:R2$$$V2.0)		IC50 (RPMI 8866 cells; [3]): 100 to 1000 nM
180 (RSDTLCXEK; not fully specified; CROSSLINK - N-term 2-Benzyl with a thioether bond between the N-term and the residue at position 6; MOD_RES 1 N-Methyl Arginine; SITE 7 aminoindan-2-carboxylic acid; SITE 8 D-Glu; SITE 9 D-Lys; SITE 9 C-term NH2) [compound 180]	100 to 1000	
